Literature values as cited in US20120115745A1, “METHODS FOR PREDICTING SENSITIVITY TO TREATMENT WITH A TARGETED TYROSINE KINASE INHIBITOR” (priority 2010, published 2012).

Legend:
[1] = test system: tumor cells that are dependent on mutant, constitutively active, FLT3 and KIT kinases
[2] = target: unrelated receptor tyrosine kinases, soluble tyrosine kinases and serine/threonine kinases; settings: less activity than against VEGF and PDGF receptor families

In the case of `Cc1ccc(F)c(NC(=O)Nc2ccc(-c3cccc4[nH]nc(N)c34)cc2)c1` [ABT-869, N-(4-(3-amino-1H-indazol-4-yl)phenyl)-N′-(2-fluoro-5-methylphenyl)urea], the “anti-proliferative and apoptotic effects on tumor cells” value [1] is given as “potent anti-proliferative and apoptotic effects” and the IC50 [2] is given as > 1 µM.
